SMILES strings stand for the structures. Where a name gives a salt, the structure may show the parent alone.

The target in one assay is LsrK (Salmonella typhimurium, UniProt Q8ZKQ6). The experiment in a line: biochemical. The class given is biochemical, S. typhimurium.
Chain of LsrK (Q8ZKQ6 whole entry): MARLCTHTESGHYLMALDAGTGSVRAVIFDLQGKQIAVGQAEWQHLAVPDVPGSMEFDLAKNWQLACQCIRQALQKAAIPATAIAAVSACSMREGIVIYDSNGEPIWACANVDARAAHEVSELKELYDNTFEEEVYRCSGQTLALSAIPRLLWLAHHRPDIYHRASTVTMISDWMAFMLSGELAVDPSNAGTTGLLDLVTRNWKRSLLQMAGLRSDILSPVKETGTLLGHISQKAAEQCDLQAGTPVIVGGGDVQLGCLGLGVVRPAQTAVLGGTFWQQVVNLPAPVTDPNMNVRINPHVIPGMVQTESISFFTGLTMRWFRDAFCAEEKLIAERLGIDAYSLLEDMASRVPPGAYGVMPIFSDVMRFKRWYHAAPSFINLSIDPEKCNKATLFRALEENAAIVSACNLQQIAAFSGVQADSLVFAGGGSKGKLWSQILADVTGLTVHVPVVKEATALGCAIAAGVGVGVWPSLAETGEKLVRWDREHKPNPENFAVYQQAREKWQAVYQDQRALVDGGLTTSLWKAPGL
Conditions: not given
`CC(C)/C(O)=C1/C(=O)O[C@@H](c2ccoc2)[C@]2(C)C(O)[C@@H](O)[C@@]34OC5(C)OC67CC(C)(C(O)[C@]6(O)[C@@H](O)[C@]3(O5)C12)[C@H](CC(=O)O)[C@]74C` (stereo partly shown) [[…] OF BUSSEIN]: the inhibition at 50 µM came out at 1%.
The same measure, in the same setting: the same measure for `N[C@@H](C(=O)O)[C@@H](O)[C@H](O)[C@H](O)CO` [GL[…]]: 1%; for `Cc1nnc(SCC2=C(C(=O)O)N3C(=O)[C@@H](NC(=O)Cn4cnnn4)[C@H]3SC2)s1` [CEFAZOLIN SODIUM]: 1%; for `O=c1oc2cc(O)ccc2s1` [TIOXOLONE]: 88%.
Same read-out and setting: the same measure for `CCCCC(CC)CNC(=N)NC(=N)NCCCCCCNC(=N)NC(=N)NCC(CC)CCCC` (stereo not shown) [ALEXIDINE HYDROCHLORIDE]: 146%; for `C=C1C(N)CC2CC1C2(C)C` (stereo not drawn) [3-AMINO-beta-PINENE]: 1%; for `CCOC(=O)[N-]c1cn(N2CCOCC2)n[o+]1` [MOLSIDOMINE]: 0%.
Still for that read-out and setting: the same measure for `O=C1CCc2cc(OCCCCc3nnnn3C3CCCCC3)ccc2N1` [CILOSTAZOL]: 2%; for `O=c1c2ccccc2[se]n1-c1ccccc1` [EBSELEN]: 6%.
Regarding `CCCCN(CCCC)CCCOC(=O)c1ccc(N)cc1` [BUTACAINE], the inhibition at 50 µM worked out at 3%.
In the case of `CN(C)CC/C=C1/c2ccccc2Sc2ccc(Cl)cc21` [CHLORPROTHIXENE HYDROCHLORIDE], the inhibition at 50 µM was 2%.
Same read-out and setting: to `CNC[C@H](O)[C@@H](O)[C@H](O)[C@H](O)CO` [MEGLUMINE] belongs 1%; to `O=C(CCc1ccc(O)cc1)c1c(O)cc(O)cc1O` [PHLORETIN], 60%.
Same read-out and setting: the same measure for `O=C(O)[C@@H](O)[C@](O)(Cc1ccc(O)cc1)C(=O)O` [PISCIDIC ACID]: 2%; for `CN1CC(=O)N2[C@H](c3ccc4c(c3)OCO4)c3[nH]c4ccccc4c3C[C@@H]2C1=O`: 1%; for `COc1ccccc1OCC(O)CO` (stereo not shown) [GUAIFENESIN]: 0%.
Still for that read-out and setting: the same measure for `C[n+]1ccccc1/C=N/O` [PRALIDOXIME CHLORIDE]: 1%; for `O=C(O)c1ccccc1Nc1cccc(C(F)(F)F)c1` [FLUFENAMIC ACID]: 62%; for `CC(C(=O)O)c1ccc2c(c1)[nH]c1ccc(Cl)cc12` (stereo not shown) [CARPROFEN]: 1%.
For `Cc1cccc(C)c1N=C1NCCCS1` [XYLAZINE], the inhibition at 50 µM turned out to be 0%.
On the same count and under the same terms, to `CCN(CC)CCOC(=O)C(c1ccccc1)c1ccccc1` [ADIPHENINE HYDROCHLORIDE] belongs 0%.

Staying with this assay, now noted: 50 µM.
For `Cl.c1ccc(C2CN3CCSC3=N2)cc1` (stereo not shown) [TETRAMIZOLE HYDROCHLORIDE], the “Inhibition (%)” value turned out to be 22.
Same read-out and setting: the same measure for `Cc1cc(C(C)(C)CC(C)(C)C)ccc1OCCOCC[N+](C)(C)Cc1ccccc1.[Cl-]` [METHYLBENZETHONIUM CHLORIDE]: 89.
The same measure, in the same setting: the same measure for `O=C([O-])C1=C(CSc2nnnn2CS(=O)(=O)[O-])CS[C@@H]2[C@H](NC(=O)[C@H](O)c3ccccc3)C(=O)N12.[Na+].[Na+]` [CEFONICID SODIUM]: 0; for `CN1CCC[C@H]1c1cccnc1.O=C(O)C(O)C(O)C(=O)O.O=C(O)C(O)C(O)C(=O)O` [NICOTINE DITARTRATE]: 0; for `CC1(C)C(=O)C=C[C@]2(C)[C@H]3CC[C@@]4(C)[C@H](c5ccoc5)OC(=O)[C@H]5O[C@]54[C@]3(C)C=C[C@@H]12` [7-DESACETOXY-6.7-DEHYDROGEDUNIN]: 33.
On the same count and under the same terms, to `CCC(C)C(=O)O[C@@H]1C[C@@]2(C)[C@H](c3ccoc3)OC(=O)CC23OC2(C)OC34[C@H](OC(=O)C(C)C)[C@@]3(O)[C@@H](OC(=O)C5(C)OC5C)[C@@]5(C)C[C@]3(O)[C@@](C)([C@H]5CC(=O)OC)C14O2` (stereo partly shown) [ENTANDROPHRAGMIN] belongs 1.
On to `CNC[C@H](O)c1ccc(O)c(O)c1.O=C(O)C(O)C(O)C(=O)O` [ADRENALINE BITARTRATE], for which the “Inhibition (%)” value came out at 15.

In general, inhibition refers to the relative decrease from the control value, in per cent.

The record behind these values is publication PMC6627609, “Targeting Quorum Sensing: High-Throughput Screening to Identify Novel LsrK Inhibitors” (International Journal of Molecular Sciences, 2019).
